This assay addresses T1, aromatase (CYP19A1) (Homo sapiens, UniProt P11511).
T1 sequence (P11511 1-503): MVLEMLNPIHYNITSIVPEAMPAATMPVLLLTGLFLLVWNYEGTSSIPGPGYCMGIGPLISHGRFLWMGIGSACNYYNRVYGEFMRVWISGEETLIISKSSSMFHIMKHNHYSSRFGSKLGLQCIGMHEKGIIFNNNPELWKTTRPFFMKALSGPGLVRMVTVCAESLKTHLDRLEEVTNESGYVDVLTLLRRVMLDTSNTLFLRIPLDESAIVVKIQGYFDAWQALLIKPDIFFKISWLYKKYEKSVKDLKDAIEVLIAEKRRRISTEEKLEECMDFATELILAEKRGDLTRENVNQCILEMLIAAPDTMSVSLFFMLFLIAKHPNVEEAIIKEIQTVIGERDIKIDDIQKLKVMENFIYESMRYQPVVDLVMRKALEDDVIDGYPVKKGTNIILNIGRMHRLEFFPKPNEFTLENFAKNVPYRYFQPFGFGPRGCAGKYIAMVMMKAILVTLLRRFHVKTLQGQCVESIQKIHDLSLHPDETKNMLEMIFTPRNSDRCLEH
Put plainly: tritiated water-release aromatase assay in KGN cells after 24-h exposure. It counts as cell-based.

The structures appear in SMILES notation.

For orientation: IC50 means the concentration that inhibits the measured activity by half. Higher therefore signals lower potency.

As for `CC(C)=CCc1c(O)cc(O)c2c1O[C@H](c1ccc(O)cc1)CC2=O` [8-PN, 8-prenylnaringenin], the IC50 is 8 nM.

The values above are taken from PMC5598505 (Toxicology Reports, 2014).
